We go through two compounds from ChEMBL document CHEMBL2074425, “Characterization of the 5'-flanking region of the human multidrug resistance protein 2 (MRP2) gene and its regulation in comparison withthe multidrug resistance protein 3 (MRP3) gene” (Eur J Biochem, 2000).

For series [1], the target named is Multidrug resistance associated protein (Homo sapiens) (UniProt Q96QA9). Briefly: (§1) TP_TRANSPORTER: reporter gene activity in promoter constructs in HepG2 cells. In kind it is functional, cell-based. (Reporter assays use an easily measured gene product as a stand-in for the process of interest.)
Chain of Multidrug resistance associated protein (Homo sapiens) (Q96QA9 as listed by the source): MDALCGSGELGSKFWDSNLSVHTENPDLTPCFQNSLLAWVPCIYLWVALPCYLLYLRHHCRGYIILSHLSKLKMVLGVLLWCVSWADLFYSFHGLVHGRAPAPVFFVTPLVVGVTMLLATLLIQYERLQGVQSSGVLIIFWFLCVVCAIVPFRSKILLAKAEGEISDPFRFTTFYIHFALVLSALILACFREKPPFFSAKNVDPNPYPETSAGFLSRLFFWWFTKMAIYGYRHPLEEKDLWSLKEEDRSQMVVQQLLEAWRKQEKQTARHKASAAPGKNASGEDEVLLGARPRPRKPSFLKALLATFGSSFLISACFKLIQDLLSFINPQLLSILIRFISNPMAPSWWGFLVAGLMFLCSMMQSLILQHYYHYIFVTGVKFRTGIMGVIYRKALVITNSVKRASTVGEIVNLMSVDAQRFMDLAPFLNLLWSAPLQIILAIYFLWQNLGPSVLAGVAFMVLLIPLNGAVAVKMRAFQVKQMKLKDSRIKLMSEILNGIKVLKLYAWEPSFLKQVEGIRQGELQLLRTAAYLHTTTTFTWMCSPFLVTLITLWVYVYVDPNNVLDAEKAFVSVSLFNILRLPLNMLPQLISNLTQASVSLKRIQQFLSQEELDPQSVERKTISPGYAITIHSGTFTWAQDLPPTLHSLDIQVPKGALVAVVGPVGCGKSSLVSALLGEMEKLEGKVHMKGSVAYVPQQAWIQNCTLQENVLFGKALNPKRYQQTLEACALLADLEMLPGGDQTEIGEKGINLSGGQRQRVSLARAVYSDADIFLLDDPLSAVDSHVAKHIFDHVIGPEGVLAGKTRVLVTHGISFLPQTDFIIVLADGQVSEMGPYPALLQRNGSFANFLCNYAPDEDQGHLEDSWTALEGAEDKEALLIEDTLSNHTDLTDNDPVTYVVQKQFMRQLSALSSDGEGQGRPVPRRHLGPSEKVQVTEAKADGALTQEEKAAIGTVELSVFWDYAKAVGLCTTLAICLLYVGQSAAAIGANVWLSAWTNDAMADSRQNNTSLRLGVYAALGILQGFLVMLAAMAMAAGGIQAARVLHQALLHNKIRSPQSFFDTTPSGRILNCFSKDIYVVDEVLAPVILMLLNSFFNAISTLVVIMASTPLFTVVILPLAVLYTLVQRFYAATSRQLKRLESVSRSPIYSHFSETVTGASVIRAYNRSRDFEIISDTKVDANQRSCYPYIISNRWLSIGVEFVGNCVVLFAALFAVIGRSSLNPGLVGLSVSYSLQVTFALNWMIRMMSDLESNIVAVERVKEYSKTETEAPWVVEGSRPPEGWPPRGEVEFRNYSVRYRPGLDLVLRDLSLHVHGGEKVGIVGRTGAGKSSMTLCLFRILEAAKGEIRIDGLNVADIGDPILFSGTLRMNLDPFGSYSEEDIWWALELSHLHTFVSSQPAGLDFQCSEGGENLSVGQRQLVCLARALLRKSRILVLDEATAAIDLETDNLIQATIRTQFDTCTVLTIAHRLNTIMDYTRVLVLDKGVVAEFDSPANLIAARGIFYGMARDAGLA
For series [2], the target named is ATP-binding cassette sub-family C member 2 (Homo sapiens, UniProt Q92887). Described as §1. The format is functional, cell-based.
Chain of ATP-binding cassette sub-family C member 2 (Q92887 whole entry): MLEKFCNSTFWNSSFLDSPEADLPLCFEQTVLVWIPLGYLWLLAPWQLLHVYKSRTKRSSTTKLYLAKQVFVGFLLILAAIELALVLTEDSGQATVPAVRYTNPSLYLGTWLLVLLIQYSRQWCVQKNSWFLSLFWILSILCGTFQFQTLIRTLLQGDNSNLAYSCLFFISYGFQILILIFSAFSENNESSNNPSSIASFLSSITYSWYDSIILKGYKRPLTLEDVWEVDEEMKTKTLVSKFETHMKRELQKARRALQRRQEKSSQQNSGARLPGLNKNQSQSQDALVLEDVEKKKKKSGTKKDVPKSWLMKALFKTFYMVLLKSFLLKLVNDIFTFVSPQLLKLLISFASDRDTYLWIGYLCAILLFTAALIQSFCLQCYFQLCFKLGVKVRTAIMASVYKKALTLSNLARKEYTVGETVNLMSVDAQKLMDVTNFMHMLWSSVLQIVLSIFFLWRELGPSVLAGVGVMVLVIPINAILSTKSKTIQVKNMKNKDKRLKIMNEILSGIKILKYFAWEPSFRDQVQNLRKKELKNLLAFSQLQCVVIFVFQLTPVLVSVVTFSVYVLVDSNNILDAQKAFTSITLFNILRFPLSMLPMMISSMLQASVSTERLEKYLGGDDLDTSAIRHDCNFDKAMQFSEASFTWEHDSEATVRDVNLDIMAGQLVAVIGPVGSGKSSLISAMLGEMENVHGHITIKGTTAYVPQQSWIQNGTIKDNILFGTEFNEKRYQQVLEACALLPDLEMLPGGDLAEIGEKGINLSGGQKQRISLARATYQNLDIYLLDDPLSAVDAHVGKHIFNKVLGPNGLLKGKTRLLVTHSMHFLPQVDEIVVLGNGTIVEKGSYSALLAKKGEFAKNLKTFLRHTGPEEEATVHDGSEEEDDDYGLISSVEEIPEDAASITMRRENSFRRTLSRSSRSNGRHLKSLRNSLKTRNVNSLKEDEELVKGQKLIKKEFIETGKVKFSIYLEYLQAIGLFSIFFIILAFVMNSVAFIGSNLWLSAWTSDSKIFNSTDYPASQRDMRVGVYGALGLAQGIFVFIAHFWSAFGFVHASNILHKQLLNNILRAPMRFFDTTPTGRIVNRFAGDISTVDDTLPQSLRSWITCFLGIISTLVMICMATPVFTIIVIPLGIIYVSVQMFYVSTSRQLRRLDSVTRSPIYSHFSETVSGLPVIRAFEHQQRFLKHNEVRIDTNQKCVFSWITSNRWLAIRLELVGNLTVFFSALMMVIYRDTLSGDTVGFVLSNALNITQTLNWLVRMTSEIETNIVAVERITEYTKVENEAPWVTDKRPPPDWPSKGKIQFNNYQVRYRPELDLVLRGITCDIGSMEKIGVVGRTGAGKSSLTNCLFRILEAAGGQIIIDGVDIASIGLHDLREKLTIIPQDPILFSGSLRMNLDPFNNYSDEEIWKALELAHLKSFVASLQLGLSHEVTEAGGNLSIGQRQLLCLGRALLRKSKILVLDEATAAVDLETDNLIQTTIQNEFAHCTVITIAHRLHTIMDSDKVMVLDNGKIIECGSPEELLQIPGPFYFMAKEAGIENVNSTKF

The structures appear in SMILES notation.

On to `COC(=O)Nc1nc2cc(C(=O)c3cccs3)ccc2[nH]1`, for which the Activity result in series [1] was “inducer [+]”.
Turning to `COC(=O)Nc1nc2ccc(C(=O)c3cccs3)cc2[nH]1` [NOCODAZOLE], in series [2], the Activity result was “inducer [+]”.
